Data: patent US6194399A, “Aryldiamine derivatives useful as antibacterial agents” (Scriptgen Pharmaceuticals, Inc., priority 1999, dated 2001)
In brackets after ≈: the same amount, converted by molar mass. Read-outs that look alike come from different tables or passages of the source.

Assays:
[1] = tested on: rifampicin-resistant S. aureus; assay: MIC, broth microdilution assay; assay type: cell-based; conditions: Staphylococcus aureus, read-out: MIC rif^R -S. aureus
Description: (§1) The antimicrobial activity of a compound or formulation according to the invention is determined by exposing a culture comprising a bacterial species to different concentrations of the compound or formulation and monitoring the effects on growth relative to a control culture not exposed to the compound. Any method known in the art may be used to assess bacterial growth. Antimicrobial effects are expressed as Minimal Inhibitory Concentration (MIC) and Minimum Bactericidal Concentration (MBC).
(§2) The MIC may be expressed as a range between the concentration at which no growth is observed and the concentration of the dilution which immediately follows.
(§3) Typically, MIC is measured using a broth microdilution assay as follows. Dilution of candidate antimicrobial compounds in culture medium is performed in a sterile, covered 96-well microtiter plate with flat bottom wells (Costar #9017). The final concentrations of the compounds are typically 100, 50, 25, 12.5, 6.25, 3.12, 1.56, 0.78, 0.39, 0.20, 0.10, and 0.05 μg/mL, respectively. Culture medium only (containing no bacteria) is also included as a negative control for each plate. Ampicillin and rifampin are used as positive controls against all bacterial strains in every experiment.
(§4) The overnight culture of a single colony is diluted in sterile medium so that, after inoculation, each well contains approximately 5×10^5CFU/mL. Within 15 minutes of preparation, […] of the adjusted inoculum suspension is added to the microliter plate. Each well is diluted with an equal volume of the antimicrobial compounds or control solution. The inoculated microtiter plate is typically incubated at 35° C. for 16-20 hours. The turbidity of each well is determined by measuring the absorbance at 595 nm using a BioRad Model 3550-UV microplate reader.
(§5) The antimicrobial activities of the compounds of the invention, expressed as MIC and MBC, were determined as described above, using as tester strains wild-type S. aureus, rifampicin-resistant S. aureus, wild-type E. coli, and E. coli cells that had been permeabilized.

wild-type S. aureus [2] = assay: MIC, broth microdilution assay; assay type: cell-based; conditions: Staphylococcus aureus
Description: as §1, §2, §3, §4, §5

wild-type E. coli [3] = assay: MIC, broth microdilution assay; assay type: cell-based; conditions: Escherichia coli
Description: as §1, §2, §3, §4, §5

human pol II = human pol II (Homo sapiens, UniProt P24928+P30876); assay: in vitro transcription reaction, RNA polymerase inhibition; assay type: biochemical
Description: RNA polymerase inhibition activity of a compound can be detected by including the compound in an in vitro transcription reaction and comparing the level of transcription that occurs in the presence and absence of the compound. The RNA polymerase may be from a bacterial source or, as a control, from an animal source. […] UTP; 400 μM each of ATP, GTP, and CTP; and RNA polymerase. After incubation for 60 minutes at 25° C., the reaction is terminated with 100 μl 10% TCA, which also precipitates the newly transcribed RNA, and incorporation of radioactivity into RNA is quantified.
In vitro and/or in vivo criteria may used to determine specificity. That is, the inhibitory activity of a particular compound towards an animal RNA polymerase may be measured in parallel with a bacterial RNA polymerase.
(§6) The compounds of the invention were included at a range of concentrations in in vitro transcription reactions containing purified RNA polymerase derived from either S. aureus, E. coli, or human, and template DNA comprising a pTaq promoter. The reaction conditions and analytical method are described above.

[4] = tested on: E. coli cells that had been permeabilized; assay: MBC determination; assay type: cell-based; conditions: Escherichia coli
Description: as §1
(§7) The minimum bactericidal concentration (MBC) is defined as the concentration of antimicrobial agent from which no colonies grow on petri plates or in the medium. […] Typically, the wells from a MIC microliter plate are made using a 96-well inoculation grid into a fresh microliter plate containing 100 μL Mueller-Hinton broth per well. The MBC plates are incubated at 37° C. for 16-20 hrs and the MBC values are determined.
as §5

wild-type S. aureus [5] = assay: MBC determination; assay type: cell-based; conditions: Staphylococcus aureus
Description: as §1, §7, §5

wild-type E. coli [6] = assay: MBC determination; assay type: cell-based; conditions: Escherichia coli
Description: as §1, §7, §5

[7] = target: purified RNA polymerase derived from E. coli (Escherichia coli, UniProt P0A7Z4+P0A8T7+P0A8V2); assay: in vitro transcription reaction, RNA polymerase inhibition; assay type: biochemical
Description: (§8) RNA polymerase inhibition activity of a compound can be detected by including the compound in an in vitro transcription reaction and comparing the level of transcription that occurs in the presence and absence of the compound. The RNA polymerase may be from a bacterial source or, as a control, from an animal source. A typical transcription reaction (50μl) contains transcription buffer (50 mM Tris-HCl, pH 8.0, 200 mM KCl, 10 mM MgCl2,10 mM DTT and 1.5 μM BSA); 1 μg of DNA template; 4 μM UTP containing 5 μCi of [α-^2-32 P] UTP; 400 μM each of ATP, GTP, and CTP; and RNA polymerase. After incubation for 60 minutes at 25° C., the reaction is terminated with 100 μl 10% TCA, which also precipitates the newly transcribed RNA, and incorporation of radioactivity into RNA is quantified. The IC50 (expressed in μg/ml) is the concentration of a compound that inhibits RNA polymerase activity by 50%.
as §6

[8] = target: purified RNA polymerase derived from S. aureus; assay: as above; assay type: biochemical
Description: as §8, §6

[9] = tested on: E. coli cells that had been permeabilized; assay: MIC, broth microdilution assay; assay type: cell-based; conditions: Escherichia coli, read-out: MIC E. coli*
Description: Within 15 minutes of preparation, […] of the adjusted inoculum suspension is added to the microliter plate.

Sequence of purified RNA polymerase derived from E. coli (P0A8V2 whole entry): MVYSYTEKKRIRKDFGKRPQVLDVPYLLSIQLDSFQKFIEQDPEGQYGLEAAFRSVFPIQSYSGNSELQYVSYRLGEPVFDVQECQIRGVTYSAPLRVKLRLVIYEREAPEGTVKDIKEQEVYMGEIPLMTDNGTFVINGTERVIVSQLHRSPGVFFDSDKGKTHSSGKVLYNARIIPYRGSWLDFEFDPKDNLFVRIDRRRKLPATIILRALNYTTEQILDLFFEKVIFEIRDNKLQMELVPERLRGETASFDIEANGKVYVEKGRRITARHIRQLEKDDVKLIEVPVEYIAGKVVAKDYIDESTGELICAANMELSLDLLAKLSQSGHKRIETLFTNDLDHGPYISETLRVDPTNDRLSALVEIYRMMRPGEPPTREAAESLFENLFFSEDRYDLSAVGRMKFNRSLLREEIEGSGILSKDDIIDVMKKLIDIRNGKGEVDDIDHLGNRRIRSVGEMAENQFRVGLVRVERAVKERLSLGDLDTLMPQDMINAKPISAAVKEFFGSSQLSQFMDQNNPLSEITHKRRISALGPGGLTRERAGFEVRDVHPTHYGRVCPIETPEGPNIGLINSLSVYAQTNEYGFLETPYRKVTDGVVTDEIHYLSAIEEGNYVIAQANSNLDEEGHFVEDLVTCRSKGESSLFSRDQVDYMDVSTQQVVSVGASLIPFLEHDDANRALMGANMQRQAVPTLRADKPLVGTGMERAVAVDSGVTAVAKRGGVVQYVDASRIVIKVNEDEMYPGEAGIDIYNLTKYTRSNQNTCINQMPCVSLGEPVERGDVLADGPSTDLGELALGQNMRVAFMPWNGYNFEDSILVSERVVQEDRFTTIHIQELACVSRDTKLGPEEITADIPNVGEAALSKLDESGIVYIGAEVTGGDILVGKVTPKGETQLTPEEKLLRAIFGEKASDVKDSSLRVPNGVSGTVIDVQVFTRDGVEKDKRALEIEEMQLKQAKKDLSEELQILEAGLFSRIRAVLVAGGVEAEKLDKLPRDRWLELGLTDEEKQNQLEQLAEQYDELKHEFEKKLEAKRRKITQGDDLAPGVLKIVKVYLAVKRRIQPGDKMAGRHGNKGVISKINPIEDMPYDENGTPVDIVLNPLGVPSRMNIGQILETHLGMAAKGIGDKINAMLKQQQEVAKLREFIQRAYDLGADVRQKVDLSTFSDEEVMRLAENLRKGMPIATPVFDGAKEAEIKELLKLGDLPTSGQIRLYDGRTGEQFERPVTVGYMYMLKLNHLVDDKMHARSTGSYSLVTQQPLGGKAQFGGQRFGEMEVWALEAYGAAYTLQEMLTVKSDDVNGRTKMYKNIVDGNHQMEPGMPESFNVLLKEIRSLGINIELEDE
Sequence of purified RNA polymerase derived from E. coli (P0A8T7 whole entry): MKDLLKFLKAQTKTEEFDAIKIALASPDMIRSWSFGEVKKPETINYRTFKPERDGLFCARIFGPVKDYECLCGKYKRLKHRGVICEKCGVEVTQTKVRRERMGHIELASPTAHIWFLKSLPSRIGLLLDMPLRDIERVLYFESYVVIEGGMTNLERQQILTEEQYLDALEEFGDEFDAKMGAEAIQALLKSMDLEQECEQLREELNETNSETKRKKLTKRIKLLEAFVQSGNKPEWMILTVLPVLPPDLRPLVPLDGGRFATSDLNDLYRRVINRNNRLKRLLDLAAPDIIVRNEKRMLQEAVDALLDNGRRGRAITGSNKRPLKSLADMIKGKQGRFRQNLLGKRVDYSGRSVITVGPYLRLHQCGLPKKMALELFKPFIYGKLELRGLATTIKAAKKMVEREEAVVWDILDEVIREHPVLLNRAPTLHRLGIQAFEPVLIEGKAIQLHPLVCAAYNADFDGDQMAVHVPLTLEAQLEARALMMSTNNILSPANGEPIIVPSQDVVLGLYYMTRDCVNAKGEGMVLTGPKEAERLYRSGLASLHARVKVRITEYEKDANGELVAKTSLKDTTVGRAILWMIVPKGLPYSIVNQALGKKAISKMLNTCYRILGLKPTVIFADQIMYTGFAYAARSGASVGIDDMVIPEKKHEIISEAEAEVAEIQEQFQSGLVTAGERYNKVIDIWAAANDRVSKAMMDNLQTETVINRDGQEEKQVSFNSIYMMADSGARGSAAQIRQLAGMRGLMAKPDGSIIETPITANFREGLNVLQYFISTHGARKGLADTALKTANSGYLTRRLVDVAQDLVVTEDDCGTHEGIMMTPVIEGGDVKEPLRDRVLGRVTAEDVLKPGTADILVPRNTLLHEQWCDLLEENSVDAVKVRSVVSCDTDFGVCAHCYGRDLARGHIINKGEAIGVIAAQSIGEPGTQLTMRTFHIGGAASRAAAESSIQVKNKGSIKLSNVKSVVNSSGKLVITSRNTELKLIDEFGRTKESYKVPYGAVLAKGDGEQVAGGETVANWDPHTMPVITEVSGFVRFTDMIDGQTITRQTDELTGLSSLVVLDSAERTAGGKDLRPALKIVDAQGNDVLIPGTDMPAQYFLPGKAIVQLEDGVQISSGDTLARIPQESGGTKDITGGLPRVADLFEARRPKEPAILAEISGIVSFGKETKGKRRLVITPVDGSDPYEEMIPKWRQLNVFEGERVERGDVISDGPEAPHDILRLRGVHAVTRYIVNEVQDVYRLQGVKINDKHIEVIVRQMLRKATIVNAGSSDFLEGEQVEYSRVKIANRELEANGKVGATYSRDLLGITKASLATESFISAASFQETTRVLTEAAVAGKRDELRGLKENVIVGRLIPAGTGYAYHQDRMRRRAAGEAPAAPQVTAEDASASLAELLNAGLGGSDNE
Sequence of purified RNA polymerase derived from E. coli (P0A7Z4 whole entry): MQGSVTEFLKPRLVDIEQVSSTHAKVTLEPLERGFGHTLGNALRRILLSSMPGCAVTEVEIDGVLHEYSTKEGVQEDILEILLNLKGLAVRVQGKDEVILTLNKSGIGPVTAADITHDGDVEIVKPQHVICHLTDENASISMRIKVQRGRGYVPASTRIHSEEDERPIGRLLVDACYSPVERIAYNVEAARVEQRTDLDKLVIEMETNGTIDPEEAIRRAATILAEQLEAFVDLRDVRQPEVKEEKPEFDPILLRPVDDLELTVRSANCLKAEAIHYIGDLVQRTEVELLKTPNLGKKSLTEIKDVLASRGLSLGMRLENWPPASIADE

Row | SMILES | MIC [1] | MIC (wild-type S. aureus [2]) | MIC (wild-type E. coli [3]) | selectivity for bacterial RNA polymerase relative to human RNA polymerase (human pol II; bacterial (S. aureus, E. coli) versus human RNA polymerase) | IC50 (human pol II; pTaq promoter template DNA, 60 minutes at 25° C., read-out: IC50 human pol II (converted)) | MBC [4] | MBC (wild-type S. aureus [5]) | MBC (wild-type E. coli [6]) | IC50 ([7]; pTaq promoter template DNA, 60 minutes at 25° C., read-out: IC50 E. coli RNA polymerase (converted)) | IC50 ([8]; pTaq promoter template DNA, 60 minutes at 25° C., read-out: IC50 S. aureus RNA polymerase (converted)) | IC50 (human pol II) | IC50 [7] | IC50 [8] | MIC [9]
1 | CC1(C)S[C@@H]2[C@H](NC(=O)[C@H](N)c3ccccc3)C(=O)N2[C@H]1C(=O)O [Amp, Ampicillin, reference compound] | 4 µg/mL (≈ 11.4 µM) | 8 µg/mL (≈ 22.9 µM) | 2 µg/mL (≈ 5.72 µM) | – | – | – | – | – | – | – | – | – | – | –
2 | NCCNc1ccc([N+](=O)[O-])c(NCCOc2ccccc2)c1 [Compound (A), N^1-(2-aminoethyl)-4-nitro-N^3-(2-phenoxyethyl)-1,3-benzenediamine] | 13 µg/mL (≈ 41.1 µM) | 6 µg/mL (≈ 19 µM) | 13 µg/mL (≈ 41.1 µM) | highest degree of selectivity | 316 µM | 25 µg/mL (≈ 79 µM) | 25 µg/mL (≈ 79 µM) | 50 µg/mL (≈ 158 µM) | 25.3 µM | 12.6 µM | – | – | – | –
3 | NCCNc1ccc([N+](=O)[O-])c(N2CCN(c3ccc([N+](=O)[O-])cc3)CC2)c1 [Compound (B)] | 2 µg/mL (≈ 5.18 µM) | 1 µg/mL (≈ 2.59 µM) | 8 µg/mL (≈ 20.7 µM) | – | – | 2 µg/mL (≈ 5.18 µM) | 8 µg/mL (≈ 20.7 µM) | 32 µg/mL (≈ 82.8 µM) | – | – | 104 µM | 23.3 µM | 10.4 µM | 4 µg/mL (≈ 10.4 µM)
4 | CO[C@H]1/C=C/O[C@@]2(C)Oc3c(C)c(O)c4c(O)c(c(/C=N/N5CCN(C)CC5)c(O)c4c3C2=O)NC(=O)/C(C)=C\C=C\[C@H](C)[C@H](O)[C@@H](C)[C@@H](O)[C@@H](C)[C@H](OC(C)=O)[C@@H]1C [Rif, rifampin, reference compound] | > 64 µg/mL | < 0.03 µg/mL | 4 µg/mL (≈ 4.86 µM) | – | – | – | – | – | – | – | – | – | – | < 0.03 µg/mL
